From patent publication US12448399B2, “Cereblon-based KRAS degrading PROTACs and uses related thereto” (Arvinas Operations, Inc., priority 2023, dated 2025)

Target: T1, KRas-G12D (Homo sapiens, UniProt P01116, G12D)
T1 construct: insert the HiBiT tag onto the N-terminus of one or more of the endogenous KRas alleles; host or cells: AsPC-1 HiBiT-KRasG12D knock-in clone (one tagged allele, two untagged KRasG12D alleles)
Assay: HiBiT Degradation Assay (G12D), AsPC-1 HiBiT-KRasG12D cells, 24 hr
Assay type: cell-based
Details: for Dmax: ASPC1, AsPC-1 cells, maximum degradation observed; for DC50: AsPC-1 cells
Procedure, shortened: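 AsPC-1 cells with CRISPR N-terminal HiBiT knock-in on one endogenous KRasG12D allele, treated 24 hr at 37° C with compound titrations in 0.5% DMSO. Lytic HiBiT luminescence normalized to DMSO, fitted to a 4-parameter model for DC50 and Dmax. Parallel alamar blue (4 hr) checked viability.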

T1 sequence (P01116 1-188 isoform P01116-2 G12D): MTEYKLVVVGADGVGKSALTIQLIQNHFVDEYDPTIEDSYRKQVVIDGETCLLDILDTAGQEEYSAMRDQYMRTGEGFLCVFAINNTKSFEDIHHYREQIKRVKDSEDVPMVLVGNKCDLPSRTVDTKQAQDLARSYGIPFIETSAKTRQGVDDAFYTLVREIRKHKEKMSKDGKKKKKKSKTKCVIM

SMILES	Dmax [%]	DC50 [µM]
C#Cc1c(F)ccc2cc(O)cc(-c3ncc4c(N5CC6CCC(C5)N6)nc(OCC5(CN6CCC(CC7CCN(c8ccc9c(c8)n(C(C)C)c(=O)n9C8CCC(=O)NC8=O)CC7)CC6)CC5)nc4c3F)c12 (stereo not shown) [Compound 191, 3-{5-[4-({1-[(1-{[(4-{3,8-diazabicyclo[3.2.1]octan-3-yl}-7-(8-ethynyl-7-fluoro-3-hydroxynaphthalen-1-yl)-8-fluoropyrido[4,3-d]pyrimidin-2-yl)oxy]methyl}cyclopropyl)methyl]piperidin-4-yl}methyl)piperidin-1-yl]-2-oxo-3-(propan-2-yl)-2,3-dihydro-1H-1,3-benzodiazol-1-yl}piperidine-2,6-dione]	> 70	< 5.1
C#Cc1c(F)ccc2cc(O)cc(-c3ncc4c(N5CC6CCC(C5)N6)nc(OCC5(CN6CCC(CC7CCN(c8ccc9c(c8F)CN(C8CCC(=O)NC8=O)C9=O)CC7)CC6)CC5)nc4c3F)c12 (stereo not shown) [Compound 192, 3-{5-[4-({1-[(1-{[(4-{3,8-diazabicyclo[3.2.1]octan-3-yl}-7-(8-ethynyl-7-fluoro-3-hydroxynaphthalen-1-yl)-8-fluoropyrido[4,3-d]pyrimidin-2-yl)oxy]methyl}cyclopropyl)methyl]piperidin-4-yl}methyl)piperidin-1-yl]-4-fluoro-1-oxo-2,3-dihydro-1H-isoindol-2-yl}piperidine-2,6-dione]	> 70	< 5.1
C#Cc1c(F)ccc2cc(O)cc(-c3ncc4c(N5CC6CCC(C5)N6)nc(OCC5(CN6CCC7(CCN(CC8CCN(c9ccc%10c(c9)n(C)c(=O)n%10C9CCC(=O)NC9=O)CC8)CC7)CC6)CC5)nc4c3F)c12 (stereo not shown) [Compound 193, 3-[5-[4-[[3-[[1-[[4-(3,8-diazabicyclo[3.2.1]octan-3-yl)-7-(8-ethynyl-7-fluoro-3-hydroxy-1-naphthyl)-8-fluoro-pyrido[4,3-d]pyrimidin-2-yl]oxymethyl]cyclopropyl]methyl]-3,9-diazaspiro[5.5]undecan-9-yl]methyl]-1-piperidyl]-3-methyl-2-oxo-benzimidazol-1-yl]piperidine-2,6-dione]	> 70	< 5.1
C#Cc1c(F)ccc2cc(O)cc(-c3ncc4c(N5CC6CCC(C5)N6)nc(OC[C@H](C)N5CCC(CC6CCN(CC7CCN(c8ccc9c(c8F)CN(C8CCC(=O)NC8=O)C9=O)CC7)CC6)CC5)nc4c3F)c12 (stereo partly drawn) [Compound 194, 3-[5-[4-[[4-[[1-[(1S)-2-[4-(3,8-diazabicyclo[3.2.1]octan-3-yl)-7-(8-ethynyl-7-fluoro-3-hydroxy-1-naphthyl)-8-fluoro-pyrido[4,3-d]pyrimidin-2-yl]oxy-1-methyl-ethyl]-4-piperidyl]methyl]-1-piperidyl]methyl]-1-piperidyl]-4-fluoro-1-oxo-isoindolin-2-yl]piperidine-2,6-dione]	> 70	< 5.1
C#Cc1c(F)ccc2cc(O)cc(-c3ncc4c(N5CC6CCC(C5)N6)nc(OC[C@H](C)N5CCC(CC6CCN(CC7CCN(c8ccc9c(c8)n(C(C)C)c(=O)n9C8CCC(=O)NC8=O)CC7)CC6)CC5)nc4c3F)c12 (stereo partly drawn) [Compound 195, 3-[5-[4-[[4-[[1-[(1S)-2-[4-(3,8-diazabicyclo[3.2.1]octan-3-yl)-7-(8-ethynyl-7-fluoro-3-hydroxy-1-naphthyl)-8-fluoro-pyrido[4,3-d]pyrimidin-2-yl]oxy-1-methyl-ethyl]-4-piperidyl]methyl]-1-piperidyl]methyl]-1-piperidyl]-3-isopropyl-2-oxo-benzimidazol-1-yl]piperidine-2,6-dione]	> 70	< 5.1
C#Cc1c(F)ccc2cc(O)cc(-c3ncc4c(N5CC6CCC(C5)N6)nc(OCC5(CN6CCC(CC7CCN(CC8CCN(c9ccc%10c(c9)n(C)c(=O)n%10C9CCC(=O)NC9=O)CC8)CC7)CC6)CC5)nc4c3F)c12 (stereo not shown) [Compound 196, 3-[5-[4-[[4-[[1-[[1-[[4-(3,8-diazabicyclo[3.2.1]octan-3-yl)-7-(8-ethynyl-7-fluoro-3-hydroxy-1-naphthyl)-8-fluoro-pyrido [4,3-d]pyrimidin-2-yl]oxymethyl]cyclopropyl]methyl]-4-piperidyl]methyl]-1-piperidyl]methyl]-1-piperidyl]-3-methyl-2-oxo-benzimidazol-1-yl]piperidine-2,6-dione]	> 70	< 5.1
C#Cc1c(F)ccc2cc(O)cc(-c3ncc4c(N5CC6CCC(C5)N6)nc(OCCN5CCC6(CC5)CCN(CC5CCN(c7ccc8c(c7F)n(C)c(=O)n8C7CCC(=O)NC7=O)CC5)CC6)nc4c3F)c12 (stereo not shown) [Compound 197, 3-(5-{4-[(9-{2-[(4-{3,8-diazabicyclo[3.2.1]octan-3-yl}-7-(8-ethynyl-7-fluoro-3-hydroxynaphthalen-1-yl)-8-fluoropyrido[4,3-d]pyrimidin-2-yl)oxy]ethyl}-3,9-diazaspiro[5.5]undecan-3-yl)methyl]piperidin-1-yl}-4-fluoro-3-methyl-2-oxo-2,3-dihydro-1H-1,3-benzodiazol-1-yl)piperidine-2,6-dione]	> 70	< 5.1
C#Cc1c(F)ccc2cc(O)cc(-c3ncc4c(N5CC6CCC(C5)N6)nc(OCCN5CCC(F)(CC6CCN(CC7CCN(c8ccc9c(c8)n(C)c(=O)n9C8CCC(=O)NC8=O)CC7)CC6)CC5)nc4c3F)c12 (stereo not shown) [Compound 198, 3-[5-[4-[[4-[[1-[2-[4-(3,8-diazabicyclo[3.2.1]octan-3-yl)-7-(8-ethynyl-7-fluoro-3-hydroxy-1-naphthyl)-8-fluoro-pyrido[4,3-d]pyrimidin-2-yl]oxyethyl]-4-fluoro-4-piperidyl]methyl]-1-piperidyl]methyl]-1-piperidyl]-3-methyl-2-oxo-benzimidazol-1-yl]piperidine-2,6-dione]	> 70	< 5.1
C#Cc1c(F)ccc2cc(O)cc(-c3ncc4c(N5CC6CCC(C5)N6)nc(OCCN5CCC(CC6CCN(CC7CCN(c8cc(F)c9c(c8F)n(C)c(=O)n9C8CCC(=O)NC8=O)CC7)CC6)CC5)nc4c3F)c12 (stereo not shown) [Compound 199, 3-{5-[4-({4-[(1-{2-[(4-{3,8-diazabicyclo[3.2.1]octan-3-yl}-7-(8-ethynyl-7-fluoro-3-hydroxynaphthalen-1-yl)-8-fluoropyrido[4,3-d]pyrimidin-2-yl)oxy]ethyl}piperidin-4-yl)methyl]piperidin-1-yl}methyl)piperidin-1-yl]-4,7-difluoro-3-methyl-2-oxo-2,3-dihydro-1H-1,3-benzodiazol-1-yl}piperidine-2,6-dione]	> 70	< 5.1
C#Cc1c(F)ccc2cc(O)cc(-c3ncc4c(N5CC6CCC(C5)N6)nc(OCCN5CCC(F)(CN6CCN(CC7CCN(c8ccc9c(c8)n(C)c(=O)n9C8CCC(=O)NC8=O)CC7)CC6)CC5)nc4c3F)c12 (stereo not shown) [Compound 200, 3-[5-[4-[[4-[[1-[2-[4-(3,8-diazabicyclo[3.2.1]octan-3-yl)-7-(8-ethynyl-7-fluoro-3-hydroxy-1-naphthyl)-8-fluoro-pyrido[4,3-d]pyrimidin-2-yl]oxyethyl]-4-fluoro-4-piperidyl]methyl]piperazin-1-yl]methyl]-1-piperidyl]-3-methyl-2-oxo-benzimidazol-1-yl]piperidine-2,6-dione]	> 70	< 5.1
C#Cc1c(F)ccc2cc(O)cc(-c3ncc4c(N5CC6CCC(C5)N6)nc(OC[C@@H]5C[C@@H](OC6CCN(CC7CCN(c8cc(F)c9c(c8F)n(C)c(=O)n9C8CCC(=O)NC8=O)CC7)CC6)CN5C)nc4c3F)c12 (stereo partly drawn) [Compound 201, 3-(5-{4-[(4-{[(3R,5S)-5-{[(4-{3,8-diazabicyclo[3.2.1]octan-3-yl}-7-(8-ethynyl-7-fluoro-3-hydroxynaphthalen-1-yl)-8-fluoropyrido[4,3-d]pyrimidin-2-yl)oxy]methyl}-1-methylpyrrolidin-3-yl]oxy}piperidin-1-yl)methyl]piperidin-1-yl}-4,7-difluoro-3-methyl-2-oxo-2,3-dihydro-1H-1,3-benzodiazol-1-yl)piperidine-2,6-dione]	> 70	< 5.1
C#Cc1c(F)ccc2cc(O)cc(-c3ncc4c(N5CC6CCC(C5)N6)nc(OCCN5CCC6(CC5)CCN(CC5CCN(c7ccc8c(c7)n(C(C)C)c(=O)n8C7CCC(=O)NC7=O)CC5)CC6)nc4c3F)c12 (stereo not shown) [Compound 202, 3-(5-{4-[(9-{2-[(4-{3,8-diazabicyclo[3.2.1]octan-3-yl}-7-(8-ethynyl-7-fluoro-3-hydroxynaphthalen-1-yl)-8-fluoropyrido[4,3-d]pyrimidin-2-yl)oxy]ethyl}-3,9-diazaspiro[5.5]undecan-3-yl)methyl]piperidin-1-yl}-2-oxo-3-(propan-2-yl)-2,3-dihydro-1H-1,3-benzodiazol-1-yl)piperidine-2,6-dione]	> 70	< 5.1
C#Cc1c(F)ccc2cc(O)cc(-c3ncc4c(N5CC6CCC(C5)N6)nc(OCCN5CCC6(CC5)CCN(CC5CCN(c7ccc8c(c7F)n(C(C)C)c(=O)n8C7CCC(=O)NC7=O)CC5)CC6)nc4c3F)c12 (stereo not shown) [Compound 203, 3-[5-[4-[[9-[2-[4-(3,8-diazabicyclo[3.2.1]octan-3-yl)-7-(8-ethynyl-7-fluoro-3-hydroxy-1-naphthyl)-8-fluoro-pyrido[4,3-d]pyrimidin-2-yl]oxyethyl]-3,9-diazaspiro[5.5]undecan-3-yl]methyl]-1-piperidyl]-4-fluoro-3-isopropyl-2-oxo-benzimidazol-1-yl]piperidine-2,6-dione]	> 70	< 5.1
C#Cc1c(F)ccc2cc(O)cc(-c3ncc4c(N5CC6CCC(C5)N6)nc(OC[C@]56CCCN5[C@H](CN5CCN(CC7CCN(c8ccc9c(c8)n(C)c(=O)n9C8CCC(=O)NC8=O)CC7)CC5)CC6)nc4c3F)c12 (stereo partly drawn) [Compound 204, 3-[5-[4-[[4-[[(3S,8R)-8-[[4-(3,8-diazabicyclo[3.2.1]octan-3-yl)-7-(8-ethynyl-7-fluoro-3-hydroxy-1-naphthyl)-8-fluoro-pyrido[4,3-d]pyrimidin-2-yl]oxymethyl]-1,2,3,5,6,7-hexahydropyrrolizin-3-yl]methyl]piperazin-1-yl]methyl]-1-piperidyl]-3-methyl-2-oxo-benzimidazol-1-yl]piperidine-2,6-dione]	> 70	< 5.1
